In series [1] the test system is Pseudomonas aeruginosa (X11045). The experiment in a line: Checkerboard MIC / synergy determination (FIC, CI) against Pseudomonas aeruginosa. The class given is cell-based. The following applies: for MIC tetracycline (μg/ml) (combination) / CI value / synergy with diminazene (in words) / FIC tetracycline compound / FIC tetracycline / MIC tetracycline / MIC tetracycline compound / MIC / MIC dibromopropamidine (μg/ml) (combination) / FIC dibromopropamidine / MIC diminazene (μg/ml) (combination): P. aeruginosa; for CI value: CI < 1 = synergy; for synergy with diminazene (in words): combination with diminazene, Table 2; for FIC tetracycline compound: in combination with dibromopropamidine; for FIC tetracycline: in combination with diminazene; for synergy with dibromopropamidine (in words): combination with dibromopropamidine, inhibition of P. aeruginosa, Table 3; for MIC: Pseudomonas aeruginosa. The procedure: In microbiology, minimum inhibitory concentration (MIC) is the lowest concentration of an antibacterial that will inhibit the visible growth of a microorganism after overnight incubation. Minimum inhibitory concentrations are important in diagnostic laboratories to confirm resistance of microorganisms to an antimicrobial agent and also to monitor the activity of new antimicrobial agents. The MIC can be determined using standard methods, for example as described in Andrews, J. Antimicrobial Chemotherapy, 48, 2001, Suppl. S1, 5-16. Typically, MIC is determined using 96-well plates, and serial two-fold dilutions of the antibacterial agent in a culture medium containing the bacteria with an approximate concentration of 10^3 cells per well. Plates are incubated at 37° C. for 18 to 24 hours. Optical density, at a wavelength of 600 nm, is then measured at the start and at the end of the incubation period. Inhibition in a particular well is calculated as (Inhibition=1−ODtest/ODno treatment). The MIC value is the minimum concentration of antibacterial agent which gives 100% inhibition. Experiments are generally performed at least as triplicate biological replicates.
The CI is measured by first calculating the fractional inhibitory concentration (FIC) of the individual actives (e.g. “compound A” or “compound B”) in a combination product against a certain bacterial strain. This is calculated by dividing the minimum inhibitory concentration (MIC) of the active in a combination product by the minimum inhibitory concentration of the active alone.
The Combination Index (CI) is calculated by adding the FIC of the two actives together. CI value=FICCompound A+FICCompound B
A CI value of 1 means the combined effect of the two agents is additive. A CI value of less than 1 means that the two agents act synergistically. It is therefore understood that the lower the CI value, the better the synergistic effect of the combination product. For a drug combination to show synergistic effects, the CI value will typically be less than 1.
This study was conducted with the following strains: Pseudomonas aeruginosa (X11045). P. aeruginosa (X11045) was received form Statens Serum Institute.
The bacteria from cryopreserved stocks were grown on LB agar plates [G. Bertani, “Studies on lysogenesis. I. The mode of phage liberation by lysogenic Escherichia coli,” J. Bacteriol., vol. 62, no. 3, pp. 293-300, September 1951] and incubated overnight at 37° C.
One colony was transferred into 15 ml of cation-adjust Mueller Hinton broth (MH2) [J. H. Mueller and J. Hinton, “A Protein-Free Medium for Primary Isolation of the Gonococcus and Meningococcus,” Exp. Biol. Med., vol. 48, no. 1, pp. 330-333, October 1941] and incubated overnight at 37° C. shaken at 200 rpm.
Checkerboard Methods of Antimicrobial Combinations Synergy Determination • 1. Day 1. • Bacterial strains are isolated on agar plates and incubated overnight at 37° C. Pseudomonas aeruginosa (X11045) on LB agar. • 2. Day 2. • For each strain, one colony is transferred into 15 ml of Mueller Hinton broth (MHB) and incubated overnight at 37° C. shaken at 200 rpm. • 3. Day 3. • Fifty microliters of the O/N culture are inoculated to 5 ml of Mueller Hinton broth in 15 ml conical tubes and incubated for 5 hours at 37° C. shaken at 200 rpm. • 4. Dispense 150 μl of MHB in each well of the 12th column for positive and negative controls as shown above. • 5. Prepare each drug to Cmax×2 • a. Diminazene/Dibromopropamidine: • Make a series of 2-fold dilution as shown in the plate layout. Using the 12 channel pipet, dispense 75 μl of diminazene solution in each well so that the final volume will be 150 μl and the final concentration is as shown in the plate schematic above. • b. Tetracycline antibiotics: • Make a series of 2-fold dilution as shown in the plate layout. […]

For series [2], the system named is E. Coli. The experiment in a line: Checkerboard MIC / synergy determination (FIC, CI) against E. coli. The series is classed as cell-based, Escherichia coli. The following applies: for MIC tetracycline (μg/ml) (combination): MIC of the tetracycline antibiotic in combination with diminazene; for CI value: combination of the tetracycline antibiotic with diminazene, CI < 1 = synergy; for FIC tetracycline compound: in combination with diminazene; for MIC: Escherichia coli.

For series [3] the following is noted: cited from earlier work.
Where [4] appears, read: MIC of the tetracycline antibiotic in combination with dibromopropamidine.
Where [5] appears, read: MIC of the tetracycline antibiotic in combination with diminazene, OD600 after 18 hours.
Setting [6] is: combination of the tetracycline antibiotic with dibromopropamidine.
Setting [7] is: combination of the tetracycline antibiotic with diminazene.
Where [8] appears, read: tetracycline antibiotic alone, Table 2 (diminazene series).
Where [9] appears, read: tetracycline antibiotic alone, Table 3 (dibromopropamidine series).
The mark [10] stands for this setting: in combination with doxycycline hyclate.
[11] abbreviates: in combination with minocycline hydrochloride.
Setting [12] is: in combination with tetracycline hydrochloride.
The mark [13] stands for this setting: in combination with tigecycline hydrate.
The mark [14] stands for this setting: diminazene alone, read-out: MIC diminazene.
[15] abbreviates: diminazene in combination with doxycycline hyclate.
Setting [16] is: diminazene in combination with minocycline hydrochloride.
[17] abbreviates: diminazene in combination with tetracycline hydrochloride.

This is an account of results in US11213533B2, “Combinations comprising dibromopropamidine or diminazene and a tetracycline anti-bacterial agent” (UNION therapeutics A/S, priority 2016, dated 2022).

Structures can show the parent of a compound that is named as a salt. Where two headings read alike, the source gives them in different places.

For the molecule `C[C@H]1c2cccc(O)c2C(=O)C2=C(O)[C@]3(O)C(=O)C(C(N)=O)=C(O)[C@@H](N(C)C)[C@@H]3[C@@H](O)[C@@H]21` [Doxycycline hyclate], the “MIC tetracycline (μg/ml) (combination)” value stood at 0.50 µg/mL in series [1] (setting [4]), 3.13 µg/mL in series [1] (setting [5]) and 0.25 µg/mL in series [2]. Moreover, the CI value in series [1] (setting [6]) came to 0.28; in series [1] (setting [7]) it was 0.25; in series [2], 0.56. For the same molecule, the “synergy with diminazene (in words)” value in series [1] is listed as “strong synergy”. In addition, the values for the FIC tetracycline compound in series [1] and in series [2] were 0.03 and 0.50, respectively. Besides, the FIC tetracycline in series [1] is reported as 0.13. Also, in series [1] (setting [8]), the “MIC tetracycline” value was 25.00 µg/mL. Also, the “MIC tetracycline compound” value in series [1] (setting [9]) came to 16.00 µg/mL; in series [2] (tetracycline antibiotic alone), 0.50 µg/mL. In addition, the “Protein binding (%)” value in series [3] is 85%.
Regarding `CN(C)c1ccc(O)c2c1C[C@H]1C[C@H]3[C@H](N(C)C)C(O)=C(C(N)=O)C(=O)[C@@]3(O)C(O)=C1C2=O.Cl` [Minocycline hydrochloride], the “MIC tetracycline (μg/ml) (combination)” value is 0.50 µg/mL in series [1] (setting [4]), 3.13 µg/mL in series [1] (setting [5]) and 0.13 µg/mL in series [2]. For the same molecule, the CI value in series [1] (setting [6]) amounted to 0.28; in series [1] (setting [7]), 0.25; in series [2] it was 0.50. Further, in series [1], the “synergy with dibromopropamidine (in words)” value is given as “Especially strong synergy”. Further, in series [1], the “synergy with diminazene (in words)” value was “strong synergy”. Moreover, the FIC tetracycline compound was found to be 0.03 in series [1] and 0.25 in series [2]. In addition, the FIC tetracycline in series [1] is 0.13. In series [1] (setting [8]), the “MIC tetracycline” value stood at 25.00 µg/mL. The “MIC tetracycline compound” value came out at 16.00 µg/mL in series [1] (setting [9]) and 0.50 µg/mL in series [2] (tetracycline antibiotic alone). In addition, the “Protein binding (%)” value in series [3] is reported as 66%.
A word on the MIC: it is the smallest concentration in the dilution series that meets the test's criterion for growth inhibition. Regarding `CN(C)[C@@H]1C(O)=C(C(N)=O)C(=O)[C@@]2(O)C(O)=C3C(=O)c4c(O)cccc4[C@@](C)(O)[C@H]3C[C@@H]12.Cl` [Tetracycline hydrochloride], the entries for the “MIC tetracycline (μg/ml) (combination)” value in series [1] (setting [4]), in series [1] (setting [5]) and in series [2] were 2.00 µg/mL, 4.00 µg/mL and 0.50 µg/mL, respectively. Further, the MIC in series [1] (18 h, tetracycline antibiotic alone, Table 2 (diminazene series), read-out: MIC tetracycline) amounted to 16 µg/mL; in series [1] (18 h, tetracycline antibiotic alone, Table 3 (dibromopropamidine series), read-out: MIC tetracycline compound) it was 16 µg/mL; in series [2] (18 h, tetracycline antibiotic alone, read-out: MIC tetracycline compound) it was 0.5 µg/mL. The CI value was 0.63 in series [1] (setting [6]), 0.50 in series [1] (setting [7]) and 2.00 in series [2]. Moreover, the “synergy with diminazene (in words)” value in series [1] is given as “strong synergy”. For the same molecule, the results for the FIC tetracycline compound in series [1] and in series [2] were 0.13 and 1.00, respectively. For the same molecule, the FIC tetracycline in series [1] is recorded as 0.25.
As to `CN(C)c1cc(NC(=O)CNC(C)(C)C)c(O)c2c1C[C@H]1C[C@H]3[C@H](N(C)C)C(O)=C(C(N)=O)C(=O)[C@@]3(O)C(O)=C1C2=O` [Tigecycline hydrate], the “MIC tetracycline (μg/ml) (combination)” value was determined as 0.50 µg/mL in series [1] (setting [4]) and 0.25 µg/mL in series [2]. The CI value turned out to be 0.52 in series [1] (setting [6]) and 0.38 in series [2]. The FIC tetracycline compound was 0.02 in series [1] and 0.25 in series [2]. The “MIC tetracycline compound” value in series [1] (setting [9]) is 32.0 µg/mL; in series [2] (tetracycline antibiotic alone), 1.00 µg/mL. For the same molecule, in series [2] (combination with diminazene, Table 4), the “synergy with diminazene (in words)” value was “particularly good synergy”. For the same molecule, the “Protein binding (%)” value in series [3] is 80%.
Turning to `N=C(N)c1ccc(OCCCOc2ccc(C(=N)N)cc2Br)c(Br)c1` [dibromopropamidine, Dibromopropamidine dihydrochloride], the minimum inhibitory concentration (MIC) in series [1] (dibromopropamidine alone, read-out: MIC dibromopropamidine) is 10 µg/mL. Further, the “MIC dibromopropamidine (μg/ml) (combination)” value was 2.50 µg/mL in series [1] (dibromopropamidine in combination with doxycycline hyclate), 2.50 µg/mL in series [1] (dibromopropamidine in combination with minocycline hydrochloride), 5.00 µg/mL in series [1] (dibromopropamidine in combination with tetracycline hydrochloride) and 5.00 µg/mL in series [1] (dibromopropamidine in combination with tigecycline hydrate). For the same molecule, the FIC dibromopropamidine in series [1] (setting [10]) came out at 0.25; in series [1] (setting [11]), 0.25; in series [1] (setting [12]), 0.50; in series [1] (setting [13]), 0.50.
For the molecule `N=C(N)c1ccc(/N=N/Nc2ccc(C(=N)N)cc2)cc1` [diminazene, Diminazene aceturate], the minimal inhibitory concentration (MIC) amounted to 250 µg/mL in series [1] (setting [14]) and 20 µg/mL in series [2] (setting [14]). The FIC dibromopropamidine in series [1] (Table 2 (diminazene table), in combination with doxycycline hyclate) was 0.13; in series [1] (Table 2 (diminazene table), in combination with minocycline hydrochloride) it was 0.13; in series [1] (Table 2 (diminazene table), in combination with tetracycline hydrochloride) it was 0.25. The “MIC diminazene (μg/ml) (combination)” value in series [1] (setting [15]) came out at 31.25 µg/mL; in series [1] (setting [16]), 31.25 µg/mL; in series [1] (setting [17]) it was 62.50 µg/mL; in series [2] (setting [15]), 1.25 µg/mL; in series [2] (setting [16]), 5.00 µg/mL; in series [2] (setting [17]), 20.00 µg/mL. The “MIC diminazene (μg/ml) (combination)” value in series [2] (diminazene in combination with tigecycline hydrate) worked out at 2.50 µg/mL. Also, the FIC diminazene was found to be 0.06 in series [2] (setting [10]), 0.25 in series [2] (setting [11]), 1.00 in series [2] (setting [12]) and 0.13 in series [2] (setting [13]). Further, the “Protein binding (%)” value in series [3] is 65-85%.
Regarding Doxycycline hyclate, the “synergy with dibromopropamidine (in words)” value in series [1] was “Especially strong synergy”.
